# Reference: patent publication US12157746B2, “Tetrahydro-1H-pyrazino[2,1-a]isoindolylquinoline compounds for the treatment of autoimmune disease” (F. HOFFMANN-LA ROCHE AG, priority 2018, dated 2024)
# Biological target: T1, human TLR8 (Homo sapiens, UniProt Q9NR97)
# T1 sequence (Q9NR97 27-1041): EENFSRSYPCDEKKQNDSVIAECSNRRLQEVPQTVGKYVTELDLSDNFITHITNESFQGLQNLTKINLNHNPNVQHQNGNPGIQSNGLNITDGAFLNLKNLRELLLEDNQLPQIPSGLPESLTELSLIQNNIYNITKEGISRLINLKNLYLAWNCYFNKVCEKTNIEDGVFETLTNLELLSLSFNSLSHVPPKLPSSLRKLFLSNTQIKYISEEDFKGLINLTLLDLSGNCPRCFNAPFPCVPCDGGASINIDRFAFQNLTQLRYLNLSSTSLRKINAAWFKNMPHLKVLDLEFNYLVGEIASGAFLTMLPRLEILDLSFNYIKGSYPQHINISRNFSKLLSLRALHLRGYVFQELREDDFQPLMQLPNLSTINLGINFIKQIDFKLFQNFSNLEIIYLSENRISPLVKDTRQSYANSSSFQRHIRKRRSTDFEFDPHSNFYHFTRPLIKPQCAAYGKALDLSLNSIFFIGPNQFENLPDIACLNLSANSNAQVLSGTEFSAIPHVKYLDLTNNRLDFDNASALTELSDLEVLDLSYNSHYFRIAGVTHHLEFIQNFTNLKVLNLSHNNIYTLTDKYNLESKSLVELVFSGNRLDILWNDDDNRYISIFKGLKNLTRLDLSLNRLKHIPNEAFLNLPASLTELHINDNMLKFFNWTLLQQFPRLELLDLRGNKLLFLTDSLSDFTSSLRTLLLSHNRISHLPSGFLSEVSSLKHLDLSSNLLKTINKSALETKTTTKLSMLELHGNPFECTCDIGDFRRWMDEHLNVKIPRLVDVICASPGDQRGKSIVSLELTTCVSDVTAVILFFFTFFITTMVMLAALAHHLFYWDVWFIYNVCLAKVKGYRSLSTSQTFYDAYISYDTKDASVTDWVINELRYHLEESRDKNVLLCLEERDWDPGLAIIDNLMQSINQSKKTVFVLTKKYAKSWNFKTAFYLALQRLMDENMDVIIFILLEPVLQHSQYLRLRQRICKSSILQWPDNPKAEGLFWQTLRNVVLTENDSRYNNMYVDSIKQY
# Test: HEK293-Blue-hTLR-8 cells assay
# Type: cell-based
# Conditions: HEK293-Blue-hTLR8 cells, R848 stimulation, 20 hrs, SEAP reporter; read-out: HEK/hTLR8 IC50
# Method in brief: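 Antagonism read out in HEK293-Blue-hTLR8 cells carrying an NF-κB/AP-1-driven SEAP reporter, stimulated with R848 (10 μL of 60 uM stock added) alongside serially diluted compound (1% DMSO), 20 h at 37° C. Supernatant SEAP measured with QUANTI-Blue after 2 h at 37° C, absorbance at 620-655 nm.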
row,SMILES,IC50 [nM]
1,"C[C@@H]1CN(c2ccc(C#N)c3ncccc23)C[C@@H]2c3ccc(C(=O)N4CCC(C)(N)CC4)cc3CN12 [Example 88, 5-[(4R,10bS)-8-(4-amino-4-methyl-piperidine-1-carbonyl)-4-methyl-3,4,6,10b-tetrahydro-1H-pyrazino[2,1-a]isoindol-2-yl]quinoline-8-carbonitrile]",0.7
2,"C[C@@H]1CN(c2ccc(C#N)c3ncccc23)C[C@@H]2c3ccc(N[C@@H]4CCCNC4)cc3CN12 [Example 65, 5-[(4R,10bS)-4-methyl-8-[[(3R)-3-piperidyl]amino]-3,4,6,10b-tetrahydro-1H-pyrazino[2,1-a]isoindol-2-yl]quinoline-8-carbonitrile]",< 3.2
3,"C[C@@H]1CN(c2ccc(C#N)c3ncccc23)C[C@@H]2c3ccc(N4C[C@@H]5CNCCN5C4=O)cc3CN12 [Example 71, 5-[(4R,10bS)-8-[(8aS)-3-oxo-1,5,6,7,8,8a-hexahydroimidazo[1,5-a]pyrazin-2-yl]-4-methyl-3,4,6,10b-tetrahydro-1H-pyrazino[2,1-a]isoindol-2-yl]quinoline-8-carbonitrile]",< 3.2
4,"CO[C@H]1CNC[C@H]1Nc1ccc2c(c1)CN1[C@H](C)CN(c3ccc(C#N)c4ncccc34)C[C@H]21 [Example 61, 5-[(4R,10bS)-8-[[(3R,4S)-4-methoxypyrrolidin-3-yl]amino]-4-methyl-3,4,6,10b-tetrahydro-1H-pyrazino[2,1-a]isoindol-2-yl]quinoline-8-carbonitrile]",< 3.2
5,"C[C@@H]1CN(c2ccc(C#N)c3ncccc23)C[C@@H]2c3ccc(NCC4(F)CNC4)cc3CN12 [Example 69, 5-[(4R,10bS)-8-[(3-fluoroazetidin-3-yl)methylamino]-4-methyl-3,4,6,10b-tetrahydro-1H-pyrazino[2,1-a]isoindol-2-yl]quinoline-8-carbonitrile]",< 3.2
6,"C[C@@H]1CN(c2ccc(C#N)c3ncccc23)C[C@@H]2c3ccc(N4CCNCC4)cc3CN12 [Example 1, 5-[(4R,10bS)-4-methyl-8-piperazin-1-yl-3,4,6,10b-tetrahydro-1H-pyrazino[2,1-a]isoindol-2-yl]quinoline-8-carbonitrile]",< 3.2
7,"CO[C@H]1CNC[C@@H]1N(C)c1ccc2c(c1)CN1[C@H](C)CN(c3ccc(C#N)c4ncccc34)C[C@H]21 [Example 64, 5-[(4R,10bS)-8-[[(3S,4S)-4-methoxypyrrolidin-3-yl]-methyl-amino]-4-methyl-3,4,6,10b-tetrahydro-1H-pyrazino[2,1-a]isoindol-2-yl]quinoline-8-carbonitrile]",< 3.2
8,"C[C@@H]1CN(c2ccc(C#N)c3ncccc23)C[C@@H]2c3cc(F)c(N4CC5(CNC5)C4)cc3CN12 [Example 84, 5-[(4R,10bS)-8-(2,6-diazaspiro[3.3]heptan-2-yl)-9-fluoro-4-methyl-3,4,6,10b-tetrahydro-1H-pyrazino[2,1-a]isoindol-2-yl]quinoline-8-carbonitrile]",1.3
9,"Cc1ccc(N2C[C@@H](C)N3Cc4cc(N[C@H]5CNC[C@H]5F)ccc4[C@H]3C2)c2cccnc12 [Example 75, (4R,10bS)—N-[(3S,4R)-4-fluoropyrrolidin-3-yl]-4-methyl-2-(8-methyl-5-quinolyl)-3,4,6,10b-tetrahydro-1H-pyrazino[2,1-a]isoindol-8-amine]",12.4
10,"CO[C@H]1CNC[C@@H]1Nc1ccc2c(c1)CN1[C@H](C)CN(c3ccc(C#N)c4ncccc34)C[C@H]21 [Example 62, 5-[(4R,10bS)-8-[[(3S,4S)-4-methoxypyrrolidin-3-yl]amino]-4-methyl-3,4,6,10b-tetrahydro-1H-pyrazino[2,1-a]isoindol-2-yl]quinoline-8-carbonitrile]",< 3.2
11,"Cc1ccc(N2C[C@@H](C)N3Cc4cc(N[C@H]5CNC[C@H]5F)ccc4[C@H]3C2)c2nccnc12 [Example 76, (4R,10bS)—N-[(3S,4R)-4-fluoropyrrolidin-3-yl]-4-methyl-2-(8-methylquinoxalin-5-yl)-3,4,6,10b-tetrahydro-1H-pyrazino[2,1-a]isoindol-8-amine]",12.7
12,"C[C@@H]1CN(c2ccc(C#N)c3ncccc23)C[C@@H]2c3ccc(NCCN4CC[C@H](O)C4)cc3CN12 [Example 68, 5-[(4R,10bS)-8-[2-[(3S)-3-hydroxypyrrolidin-1-yl]ethylamino]-4-methyl-3,4,6,10b-tetrahydro-1H-pyrazino[2,1-a]isoindol-2-yl]quinoline-8-carbonitrile]",< 3.2
13,"CO[C@@H]1CNC[C@H]1Nc1cc2c(cc1C)[C@H]1CN(c3ccc(C#N)c4ncccc34)C[C@@H](C)N1C2 [Example 63, 5-[(4R,10bS)-8-[[(3R,4R)-4-methoxypyrrolidin-3-yl]amino]-4,9-dimethyl-3,4,6,10b-tetrahydro-1H-pyrazino[2,1-a]isoindol-2-yl]quinoline-8-carbonitrile]",6.2
14,"C[C@@H]1CN(c2ccc(C#N)c3ncccc23)C[C@@H]2c3ccc(N[C@@H]4CNCCOC4)cc3CN12 [Example 56A, 5-[(4R,10bS)-4-methyl-8-[[(6R)-1,4-oxazepan-6-yl]amino]-3,4,6,10b-tetrahydro-1H-pyrazino[2,1-a]isoindol-2-yl]quinoline-8-carbonitrile]",< 3.2
15,"C[C@@H]1CN(c2ccc(C#N)c3ncccc23)C[C@@H]2c3ccc(NCC4COCCN4)cc3CN12 (stereo partly drawn) [Example 57, 5-[(4R,10bS)-4-methyl-8-(morpholin-3-ylmethylamino)-3,4,6,10b-tetrahydro-1H-pyrazino[2,1-a]isoindol-2-yl]quinoline-8-carbonitrile]",< 3.2
16,"C[C@H]1CN(c2ccc(C#N)c3ncccc23)C[C@H]2c3ccc(N4CCNCC4)cc3CN12 [Example 2, 5-[(4S,10bR)-4-methyl-8-piperazin-1-yl-3,4,6,10b-tetrahydro-1H-pyrazino[2,1-a]isoindol-2-yl]quinoline-8-carbonitrile]",< 3.2
17,"C[C@@H]1CN(c2ccc(C#N)c3ncccc23)C[C@@H]2c3cc(F)c(N4C[C@H](N)[C@@](C)(O)C4)cc3CN12 [Example 83, 5-[(4R,10bS)-8-[(3S,4S)-4-amino-3-hydroxy-3-methyl-pyrrolidin-1-yl]-9-fluoro-4-methyl-3,4,6,10b-tetrahydro-1H-pyrazino[2,1-a]isoindol-2-yl]quinoline-8-carbonitrile]",1
18,"C[C@@H]1CN(c2ccc(C#N)c3ncccc23)C[C@@H]2c3cccc(NCCN4CC[C@H](O)C4)c3CN12 [Example 80, 5-[(4R,10bS)-7-[2-[(3S)-3-hydroxypyrrolidin-1-yl]ethylamino]-4-methyl-3,4,6,10b-tetrahydro-1H-pyrazino[2,1-a]isoindol-2-yl]quinoline-8-carbonitrile]",< 3.2
19,"N#Cc1ccc(N2CCN3Cc4cc(N5CCNCC5)ccc4C3C2)c2cccnc12 (centres unmarked) [Example 3, 5-(8-piperazin-1-yl-3,4,6,10b-tetrahydro-1H-pyrazino[2,1-a]isoindol-2-yl)quinoline-8-carbonitrile]",< 3.2
20,"C[C@@H]1CN(c2ccc(C#N)c3ncccc23)C[C@@H]2c3ccc(N4C[C@H]5CNCCN5C4=O)cc3CN12 [Example 72, 5-[(4R,10bS)-8-[(8aR)-3-oxo-1,5,6,7,8,8a-hexahydroimidazo[1,5-a]pyrazin-2-yl]-4-methyl-3,4,6,10b-tetrahydro-1H-pyrazino[2,1-a]isoindol-2-yl]quinoline-8-carbonitrile]",< 3.2
21,"C[C@@H]1CN(c2ccc(C#N)c3ncccc23)C[C@@H]2c3ccc(OC[C@@H]4C[C@H](F)CN4)cc3CN12 [Example 74, 5-[(4R,10bS)-8-[[(2S,4S)-4-fluoropyrrolidin-2-yl]methoxy]-4-methyl-3,4,6,10b-tetrahydro-1H-pyrazino[2,1-a]isoindol-2-yl]quinoline-8-carbonitrile]",< 0.3
22,"C[C@@H]1CN(c2ccc(C#N)c3ncccc23)C[C@@H]2c3cccc(N[C@H]4CNC[C@H]4F)c3CN12 [Example 81, 5-[(4R,10bS)-7-[[(3S,4R)-4-fluoropyrrolidin-3-yl]amino]-4-methyl-3,4,6,10b-tetrahydro-1H-pyrazino[2,1-a]isoindol-2-yl]quinoline-8-carbonitrile]",< 3.2
23,"C[C@@H]1CN(c2ccc(C#N)c3ncccc23)C[C@@H]2c3ccc(NC[C@@H]4C[C@H](F)CN4)cc3CN12 [Example 70, 5-[(4R,10bS)-8-[[(2S,4S)-4-fluoropyrrolidin-2-yl]methylamino]-4-methyl-3,4,6,10b-tetrahydro-1H-pyrazino[2,1-a]isoindol-2-yl]quinoline-8-carbonitrile]",0.5
